Source: patent US20240368161A1, “CYCLOPROPANECARBOXAMIDE-CONTAINING COMPOUNDS AND APPLICATION THEREOF” (CGENETECH (SUZHOU, CHINA) CO., LTD., priority 2022, published 2024)
Read-outs that look alike come from different tables or passages of the source.

Experiments:
JAK2 = JAK2 (Homo sapiens (Human), UniProt O60674); assay: JAK2 kinase inhibitory activity determination (HTRF Kinase-TK); format: biochemical; details: JAK2 0.008 ng/μL, ATP 4 μM, substrate 1 μM, 2 h
Experimental: (§1) • JAK1: 0.32 ng/μL, ATP 4 M, substrate 1 μM, time 4 h • JAK2: 0.008 ng/μL, ATP 4 μM, substrate 1 M, time 2 h • JAK3: 0.1 ng/μL, ATP 3 μM, substrate 1 μM, time 3 h
(§2) The half-maximal inhibitory concentration (IC50) was fitted using GraphPad Prism 6 based on the kinase inhibition rates of the compound to be tested at different concentrations.

JAK1 = JAK1 (Homo sapiens (Human), UniProt P23458); assay: JAK1 kinase inhibitory activity determination (HTRF Kinase-TK); format: biochemical; details: JAK1 0.32 ng/μL, ATP 4 μM, substrate 1 μM, 4 h
Sequence of JAK1 (P23458 866-1154): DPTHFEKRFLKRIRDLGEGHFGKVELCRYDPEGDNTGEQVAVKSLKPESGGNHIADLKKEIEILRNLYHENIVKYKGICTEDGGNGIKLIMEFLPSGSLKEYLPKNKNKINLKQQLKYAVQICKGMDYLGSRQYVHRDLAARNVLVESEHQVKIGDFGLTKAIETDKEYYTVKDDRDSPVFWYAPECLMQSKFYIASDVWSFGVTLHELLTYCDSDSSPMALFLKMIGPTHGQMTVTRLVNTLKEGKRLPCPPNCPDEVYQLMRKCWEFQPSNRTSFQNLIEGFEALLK
Experimental: as §1, §2

JAK3 = JAK3 (Homo sapiens (Human), UniProt P52333); assay: JAK3 kinase inhibitory activity determination (HTRF Kinase-TK); format: biochemical; details: JAK3 0.1 ng/μL, ATP 3 μM, substrate 1 μM, 3 h
Sequence of JAK3 (P52333 795-1124): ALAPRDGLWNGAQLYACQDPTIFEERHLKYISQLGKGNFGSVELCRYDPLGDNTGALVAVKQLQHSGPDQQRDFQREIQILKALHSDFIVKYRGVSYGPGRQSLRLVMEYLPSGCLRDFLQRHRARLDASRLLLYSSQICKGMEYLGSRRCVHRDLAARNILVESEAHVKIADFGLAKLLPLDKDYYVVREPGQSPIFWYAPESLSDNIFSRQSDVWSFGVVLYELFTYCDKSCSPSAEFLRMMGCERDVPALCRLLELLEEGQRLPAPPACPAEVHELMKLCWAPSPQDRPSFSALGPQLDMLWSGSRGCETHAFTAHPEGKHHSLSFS
Experimental: as §1
At the end of incubation, HTRF665/620 signals were read on a multifunctional microplate reader.
as §2

[1] = Oral pharmacokinetic determination in mice; format: in vivo, C57 mice; details: for AUC(0-inf) / AUC(0-t) / Cmax / Tmax / MRT last / MRT inf / half-life: mouse, male C57 mice, plasma; for MRT last: read-out: MRT(0-t); for MRT inf: read-out: MRT(0-∞); for half-life: read-out: T½ (converted)
Experimental: Three healthy male C57 mice, aged 6-8 weeks, were purchased from Shanghai Sippr-BK Laboratory Animal Co. Ltd. (Shanghai, China).
Mice were fasted overnight prior to oral administration, and food supply was resumed 4 h after administration with free access to water. […] blood sampling; approximately 30 μL of blood was collected from the tested animals at 0.125 h, 0.25 h, 0.5 h, 1 h, 2 h, 4 h, 8 h, and 24 h, respectively, after administration and placed in test tubes containing the anticoagulant sodium heparin, which were placed on ice until centrifugation, and within 15 min, centrifuged in a centrifuge at 6800 g for 6 min at 6-8° C., and within 1 h of blood collection/centrifugation, plasma was transferred to appropriately labeled tubes and stored frozen at about −80° C.
Mass spectrometry method: LC-MS/MS-19 (TQ5500) (SCIEX, USA), ion source: ESI source, detection mode: positive ion detection, scanning mode: multi-reaction monitoring (MRM) mode, m/z: 271.10/172.00 Da (Tolbutamide, internal standard).
To 10 μL of the plasma sample, was added 200 μL of internal standard working solution (Tolbutamide, 100 ng/mL), with vortex for 1 min, followed by centrifugation for 10 min at 18,000 g. 200 μL of a supernatant was transferred to a 96-well low volume plate, and 1 μL of the supernatant was taken and injected into LC-MS/MS for analysis.
Pharmacokinetic (PK) parameters were calculated using Phoenix WinNonlin 7.0 software, and oral pharmacokinetic parameters of mice including AUC, Cmax, Tmax, T½, etc., were estimated by the non-compartment model.

Sequence of JAK2 (O60674 826-1132): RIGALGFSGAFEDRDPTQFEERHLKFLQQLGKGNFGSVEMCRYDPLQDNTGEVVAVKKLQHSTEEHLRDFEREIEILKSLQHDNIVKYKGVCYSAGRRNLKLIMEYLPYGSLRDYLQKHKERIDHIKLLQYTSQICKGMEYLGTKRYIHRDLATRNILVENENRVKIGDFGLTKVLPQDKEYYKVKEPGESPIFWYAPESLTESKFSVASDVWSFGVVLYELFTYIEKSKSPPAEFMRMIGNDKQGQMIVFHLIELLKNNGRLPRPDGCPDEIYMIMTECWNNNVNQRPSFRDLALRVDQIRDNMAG

N#CCC(C1CCCC1)n1cc(-c2cccc3nc(NC(=O)C4CC4)cn23)cn1 (centres unmarked) [Compound 1]
IC50 (JAK2): 4.13 nM | IC50 (JAK1): 57.6 nM

N#CCC(C1CC1)n1cc(-c2cccc3nc(NC(=O)C4CC4)cn23)cn1 (centres unmarked) [Compound 2]
IC50 (JAK2): 13.5 nM | IC50 (JAK1): 77 nM

N#CCC(CC1CC1)n1cc(-c2cccc3nc(NC(=O)C4CC4)cn23)cn1 (centres unmarked) [Compound 3]
IC50 (JAK2): 6.87 nM | IC50 (JAK1): 37.8 nM

CCC(CC#N)n1cc(-c2cccc3nc(NC(=O)C4CC4)cn23)cn1 (centres unmarked) [Compound 4]
IC50 (JAK2): 4.68 nM | IC50 (JAK1): 19.5 nM

CCCC(CC#N)n1cc(-c2cccc3nc(NC(=O)C4CC4)cn23)cn1 (centres unmarked) [Compound 5]
IC50 (JAK2): 1.81 nM | IC50 (JAK1): 14 nM

COCC(CC#N)n1cc(-c2cccc3nc(NC(=O)C4CC4)cn23)cn1 (centres unmarked) [Compound 6]
IC50 (JAK2): 9.49 nM | IC50 (JAK1): 48.9 nM

CCCCC(CC#N)n1cc(-c2cccc3nc(NC(=O)C4CC4)cn23)cn1 (centres unmarked) [Compound 7]
IC50 (JAK2): 1.72 nM | IC50 (JAK1): 7.62 nM

COCCC(CC#N)n1cc(-c2cccc3nc(NC(=O)C4CC4)cn23)cn1 (centres unmarked) [Compound 9]
IC50 (JAK2): 13.4 nM | IC50 (JAK1): 28.3 nM

N#CCC(CCC(F)(F)F)n1cc(-c2cccc3nc(NC(=O)C4CC4)cn23)cn1 (centres unmarked) [Compound 10]
IC50 (JAK2): 1.24 nM | IC50 (JAK1): 6.64 nM

N#CCC(C1CCCC1)n1cc(-c2cccc3nc(NC(=O)C4CC4)nn23)cn1 (centres unmarked) [Compound 11]
IC50 (JAK2): 6.28 nM | IC50 (JAK1): 36.6 nM

N#CCC1(n2cc(-c3cccc4nc(NC(=O)C5CC5)cn34)cn2)CCC(F)(F)CC1 [Compound 12]
IC50 (JAK2): 0.7 nM | IC50 (JAK1): 10 nM

N#CCC1(n2cc(-c3cccc4nc(NC(=O)C5CC5)cn34)cn2)CCC(C(F)(F)F)CC1 (centres unmarked) [Compound 13]
IC50 (JAK3): 46.8 nM | IC50 (JAK2): 0.8 nM | IC50 (JAK1): 8.4 nM

N#CCC1(n2cc(-c3cccc4nc(NC(=O)C5CC5)cn34)cn2)CCCCC1 [Compound 14]
IC50 (JAK2): 6.7 nM | IC50 (JAK1): 115 nM

CS(=O)(=O)C1CN(Cc2ccc(-c3cccc4nc(NC(=O)C5CC5)cn34)cc2)C1 [Compound 15]
systemic exposure (AUC) per unit dose compared to Filgotinib ([1]; mice, oral, unit dose comparison): higher systemic exposure | AUC(0-inf) ([1]; oral (gavage), dose 10 mg/kg): 9880 ng·h/mL | AUC(0-t) ([1]; oral (gavage), dose 10 mg/kg): 9750 ng·h/mL | Cmax ([1]; oral (gavage), dose 10 mg/kg): 6220 ng/mL | Tmax ([1]; oral (gavage), dose 10 mg/kg): 0.29 h | MRT last ([1]; oral (gavage), dose 10 mg/kg): 1.6 h | MRT inf ([1]; oral (gavage), dose 10 mg/kg): 1.7 h | half-life ([1]; oral (gavage), dose 10 mg/kg): 1.31 h

O=C(Nc1nc2cccc(-c3ccc(OC4CCS(=O)(=O)CC4)cc3)n2n1)C1CC1 [Compound 19]
IC50 (JAK3): 909 nM | IC50 (JAK2): 90.3 nM | IC50 (JAK1): 182 nM

O=C(Nc1cn2c(-c3ccc(ON4CC[S+]([O-])CC4)cc3)cccc2n1)C1CC1 [Compound 21]
IC50 (JAK2): 592 nM | IC50 (JAK1): 247 nM

O=C(Nc1nc2cccc(-c3ccc(CN4CCS(=O)(=O)CC4)cc3)n2n1)C1(F)CC1 [Compound 24]
IC50 (JAK3): > 10000 nM | IC50 (JAK2): 1580 nM | IC50 (JAK1): 3640 nM

O=C(Nc1nc2cccc(-c3ccc(CN4CCS(=O)(=O)CC4)cc3)n2n1)C1CC1(F)F (centres unmarked) [Compound 25]
IC50 (JAK3): 7780 nM | IC50 (JAK2): 1980 nM | IC50 (JAK1): 590 nM

O=C(Nc1nc2cccc(-c3ccc(CN4CCS(=O)(=O)CC4)cc3)n2n1)C1C[C@H]1F (some centres unmarked) [Compound 26]
IC50 (JAK3): 3450 nM | IC50 (JAK2): 1090 nM | IC50 (JAK1): 1250 nM

O=C(Nc1nc2cccc(-c3ccc(CN4CCS(=O)(=O)CC4)cc3)n2n1)C1C[C@@H]1F (some centres unmarked) [Compound 27]
IC50 (JAK3): 1920 nM | IC50 (JAK2): 415 nM | IC50 (JAK1): 1080 nM

O=C(Nc1cn2c(-c3ccc(CN4CCC(F)(F)CC4)cc3)cccc2n1)C1CC1 [Compound 28]
IC50 (JAK3): 94.9 nM | IC50 (JAK2): 24.2 nM | IC50 (JAK1): 26.2 nM

O=C(Nc1cn2c(-c3ccc(CN4CCS(=O)(=O)CC4)cc3F)cccc2n1)C1CC1F (centres unmarked) [Compound 29]
IC50 (JAK3): 6110 nM | IC50 (JAK2): 170 nM | IC50 (JAK1): 88.7 nM

CCS(=O)(=O)C1CCN(Cc2ccc(-c3cccc4nc(NC(=O)C5CC5)cn34)cc2)CC1 [Compound 30]
IC50 (JAK3): 5590 nM | IC50 (JAK2): 162 nM | IC50 (JAK1): 387 nM

CC(C)S(=O)(=O)C1CCN(Cc2ccc(-c3cccc4nc(NC(=O)C5CC5)cn34)cc2)CC1 [Compound 32]
IC50 (JAK3): 9640 nM | IC50 (JAK2): 448 nM | IC50 (JAK1): 956 nM

CC(C)CS(=O)(=O)C1CCN(Cc2ccc(-c3cccc4nc(NC(=O)C5CC5)cn34)cc2)CC1 [Compound 33]
IC50 (JAK3): 8280 nM | IC50 (JAK2): 463 nM | IC50 (JAK1): 675 nM

O=C(Nc1nc2cccc(-c3ccc(CN4CCS(=O)(=O)CC4)cc3)n2n1)C1CC1 [Filgotinib, reference compound]
AUC(0-inf) ([1]; oral, dose 5 mg/kg): 2190 ng·h/mL | AUC(0-t) ([1]; oral, dose 5 mg/kg): 2120 ng·h/mL | Cmax ([1]; oral, dose 5 mg/kg): 1710 ng/mL | Tmax ([1]; oral, dose 5 mg/kg): 0.25 h | MRT last ([1]; oral, dose 5 mg/kg): 1.54 h | MRT inf ([1]; oral, dose 5 mg/kg): 1.82 h | half-life ([1]; oral, dose 5 mg/kg): 1.79 h
